Key:
[1] = Reverse phase HPLC stability of liquid relaxin formulations; details: in Milli-Q water at 5° C., reference material
Procedure: All buffers were made up to isotonicity (0.154 μ) with the addition of NaCl. […] The resulting 135 100-μL-microvials and 90 1.5-ml-vials were placed on stability tests at 5, 25 and 40° C. Samples were assayed at 0, 7, 21, and 30 days by reverse phase HPLC, ELISA, and cyclic AMP assays. In addition to these assays, the samples were also assayed by near UV circular dichroism (near UV CD) and analytical ultracentrifugation (UC) on days 0 and 30.
The resulting nine samples were each sterile filtered, divided into three equal volumes, and loaded into sterile 300 μL glass microvials. The resulting 27 vials containing about 9 mg were placed on stability testing at 5, 25, and 40° C. for up to 40 days. Samples were assayed by an ELISA assay and a C4 reverse-phase HPLC assay on days 0, 7, 14, 28, and 40. The remaining 3 mg of relaxin was kept in Milli-Q water at 5° C. and used as the reference material. […] These observations were repeated on reference samples used in subsequent stability studies. […]
Study 1: The degradation of relaxin as a function of time was monitored by reverse phase HPLC. […] The fraction of the main peak remaining was computed from triplicate samples (when available), and first-order plots of the degradation kinetics of the main HPLG peak for the five formulations shown in Table I (ranging from 3.0 to 7.5) were determined. […]

rabbit cervix = assay: Efficacy on the ripening of the rabbit cervix; assay type: in vivo; details: initial study, 300 μg/ml topical formulation, 0.5 ml intravaginal, eighteen hours
Procedure: Mature pregnant female New Zealand rabbits weighing 4.5 to 6.0 kg were studied. […] Both hormones were applied intravaginally by means of a syringe and a catheter in a volume of 0.5 ml. Control animals received the vehicle alone. After 16-18 hours, the animals were sacrificed using a lethal dose of pentobarbital. […] Paraffin sections were cut and stained with hematoxylin/eosin and alcian blue PAS. Sections were evaluated for general morphology, and specifically for the degree of separation of muscular tissue and collagen fibrils in the submucosa and for the presence of characteristic PAS positive giant cells, which are multinucleate cells of macrophage origin that normally infiltrate the cervix during labor. The measurement of giant cells is accomplished using the procedure described by MacLennan et al., Am J. Obstet.

cervix [2] = details: 2-mg dose in methylcellulose gel; MacLennan et al. (1981); cited from earlier work
cervix [3] = details: infusion of 3000 units in the cervical os; Perezgrovas and Anderson (1982); cited from earlier work

CC[C@H](C)[C@@H]1NC(=O)[C@H](C)NC(=O)[C@H]([C@@H](C)CC)NC(=O)[C@H](CCC(N)=O)NC(=O)[C@H](C)NC(=O)[C@H](CCCNC(=N)N)NC(=O)[C@H](C(C)C)NC(=O)[C@H](CC(C)C)NC(=O)[C@H](CCC(=O)O)NC(=O)[C@H](CCCNC(=N)N)NC(=O)CNC(=O)[C@@H](NC(=O)[C@H](CC(C)C)NC(=O)[C@H](CCCCN)NC(=O)[C@@H](NC(=O)[C@@H](NC(=O)[C@H](CCC(=O)O)NC(=O)[C@H](CCC(=O)O)NC(=O)[C@H](CCSC)NC(=O)[C@H](Cc2c[nH]c3ccccc23)NC(=O)[C@H](CO)NC(=O)[C@@H](N)CC(=O)O)C(C)C)[C@@H](C)CC)CSSC[C@@H]2NC(=O)[C@@H](NC(=O)[C@H](CCCCN)NC(=O)[C@H](CC(N)=O)NC(=O)[C@H](C)NC(=O)[C@H](CC(C)C)NC(=O)[C@H](C)NC(=O)[C@H](CO)NC(=O)[C@H](Cc3ccc(O)cc3)NC(=O)[C@H](CC(C)C)NC(=O)[C@@H]3CCC(=O)N3)CSSC[C@H](NC(=O)CNC(=O)[C@H](C(C)C)NC(=O)[C@H](Cc3c[nH]cn3)NC2=O)C(=O)N[C@@H]([C@@H](C)O)C(=O)N[C@@H](CCCCN)C(=O)N[C@@H](CCCNC(=N)N)C(=O)N[C@@H](CO)C(=O)N[C@@H](CC(C)C)C(=O)N[C@@H](C)C(=O)N[C@@H](CCCNC(=N)N)C(=O)N[C@@H](Cc2ccccc2)C(=O)N[C@H](C(=O)O)CSSC[C@@H](C(=O)NCC(=O)N[C@@H](CCSC)C(=O)N[C@@H](CO)C(=O)N[C@H](C(=O)N[C@@H](Cc2c[nH]c3ccccc23)C(=O)N[C@@H](CO)C(=O)N[C@@H](CCCCN)C(=O)N[C@@H](CCCNC(=N)N)C(=O)N[C@@H](CO)C(=O)N[C@@H](CC(C)C)C(=O)O)[C@@H](C)O)NC1=O [long relaxin]
stability by reverse phase HPLC [1]: stable by reverse phase HPLC for at least five months

porcine relaxin
morphology of the pregnant cervix (ripening) (rabbit cervix): induce changes in the morphology of the pregnant cervix consistent with ripening
cervical score (cervix [2]): improve the cervical score
time to increased dilatation of the cervix (cervix [3]): ≤ 8 h

Source: patent US5451572A (Genentech, Inc., priority 1993, dated 1995)
